US20210403860A1 (priority 2018, published 2021)
“And” between values parts separate entries of the source, which are not always exact repeats. Equal entries are not always repeated. Where two headings read alike, the source gives them in different places.

Experiments:
[1] = test system: Ca. L. asiaticus; assay type: cell-based; settings: 10 mM glucose and 100 μg/ml amikacin
[2] = test system: Ca. L. asiaticus; settings: cited from earlier work
[3] = test system: Paenibacillus silvae; assay type: cell-based
[4] = test system: Ca. L. asiaticus; assay type: cell-based, Candidatus Liberibacter asiaticus (strain psy62); settings: for fold change in Ca. L. asiaticus GE: 7 days
[5] = test system: Clostridium argentinense; assay type: cell-based
[6] = test system: Flavobacterium acidificum; assay type: cell-based
[7] = test system: Bacillus cereus; assay type: cell-based
[8] = test system: Brevibacillus gelatini; assay type: cell-based
[9] = test system: Pseudomonas putida; assay type: cell-based
[10] = test system: Comamonas terrigena; assay type: cell-based
[11] = test system: Lysinibacillus mangiferihumi; assay type: cell-based
[12] = test system: Pantoea cypripedii; assay type: cell-based
[13] = test system: Stenotrophomonas bentonitica; assay type: cell-based
[14] = test system: Pseudomonadaceae; assay type: cell-based
[15] = test system: Bacillus cereus; settings: cited from earlier work
[16] = test system: Bacillaceae; assay type: cell-based

NCC[C@H](O)C(=O)N[C@@H]1C[C@H](N)[C@@H](O[C@H]2O[C@H](CN)[C@@H](O)[C@H](O)[C@H]2O)[C@H](O)[C@H]1O[C@H]1O[C@H](CO)[C@@H](O)[C@H](N)[C@H]1O [amikacin]
Ca. L. asiaticus GE, day 3 ([1]; 10% O2 (FIG. 13)): 1.15×10^5±2.8×10^4 GE | fold potentiation in Ca. L. asiaticus DNA content vs glucose alone ([1]; three days): 3.03 fold | overall fold increase in GE compared to starting material (d0) ([1]; three days): 11.1 fold | activity against / sensitivity of Ca. L. asiaticus [2]: does not appear to be sensitive

C[C@H]1O[C@H](O[C@H]2[C@H](O)[C@@H](O)[C@@H](O)[C@H](O)[C@@H]2O)[C@@H](N)C[C@@H]1NC(=N)C(=O)O [kasugamycin]
proportion of OTU 8 [3]: 0.000 | enhancement of Ca. L. asiaticus growth ([4]; kasugamycin treatment): did not enhance | proportion of OTU 5 ([5]; Kag 0.25 μg/ml): 0.030 | proportion of OTU 10 [6]: 0.056 | proportion of OTU 3 [7]: 0.001 | proportion of OTU 9 [8]: 0.001 | proportion of OTU 1 [9]: 0.599 | proportion of OTU 6 [10]: 0.000 | proportion of OTU 4 [11]: 0.000 | proportion of OTU 7 [12]: 0.005 | proportion of OTU 2 [13]: 0.136

[H]/N=C(/N)N[C@H]1[C@H](O)[C@@H](O)[C@H](O[C@@H]2O[C@@H](C)[C@](O)(C=O)[C@H]2O[C@@H]2O[C@@H](CO)[C@H](O)[C@@H](O)[C@@H]2NC)[C@@H](N/C(N)=N\[H])[C@@H]1O [streptomycin]
decrease of proportion of Pseudomonadaceae compared to non-antibiotic samples [14]: 5.5 times and 9.8 times | proportion of OTU 8 [3]: 0.000 | fold change in Ca. L. asiaticus GE ([4]; 0.02 μg/ml streptomycin, vs non-antibiotic control): 5.56±0.15 fold and ~6 fold | Ca. L. asiaticus growth compared to untreated cultures ([4]; streptomycin >0.5 μg/ml): reduced | proportion of OTU 5 ([5]; Str 0.02 μg/ml): 0.002 | proportion of OTU 5 ([5]; Str 0.05 μg/ml): 0.007 | proportion of OTU 5 ([5]; Str 0.5 μg/ml): 0.154 | proportion of OTU 5 ([5]; Str 1.00 μg/ml): 0.131 | proportion of OTU 5 ([5]; Str 2.00 μg/ml): 0.104 | proportion of OTU 10 [6]: 0.000 | concentration sub-inhibitory to Bacillus cereus [15]: < 2.9 µg/mL | proportion of OTU 4 [11]: 0.000

CN[C@H](CC(C)C)C(=O)N[C@H]1C(=O)N[C@@H](CC(N)=O)C(=O)N[C@H]2C(=O)N[C@H]3C(=O)N[C@H](C(=O)N[C@H](C(=O)O)c4cc(O)cc(O)c4-c4cc3ccc4O)[C@H](O)c3ccc(c(Cl)c3)Oc3cc2cc(c3O[C@@H]2O[C@H](CO)[C@@H](O)[C@H](O)[C@H]2O[C@H]2C[C@](C)(N)[C@H](O)[C@H](C)O2)Oc2ccc(cc2Cl)[C@H]1O [vancomycin]
proportion of OTU 8 [3]: 0.000 | fold change in Ca. L. asiaticus GE ([4]; 50 μg/ml vancomycin, vs non-antibiotic control): 7.35±0.27 fold | proportion of OTU 5 ([5]; Van 25 μg/ml): 0.120 | proportion of OTU 5 ([5]; Van 35 μg/ml): 0.101 | proportion of OTU 5 ([5]; Van 50 μg/ml): 0.071 | proportion of OTU 5 ([5]; Van 75 μg/ml): 0.039 | proportion of OTU 5 ([5]; Van 100 μg/ml): 0.004 | proportion of OTU 9 [8]: 0.000 | proportion of OTU 1 [9]: 0.479 and 0.469 and 0.398 and 0.318 and 0.527

polymyxin B
decrease of proportion of Pseudomonadaceae compared to non-antibiotic samples [14]: 30.5 times | proportion of OTU 8 [3]: 0.000 | fold change in Ca. L. asiaticus GE ([4]; 2 μg/ml polymyxin B, vs non-antibiotic control): 2.28±0.15 fold | fold change in Ca. L. asiaticus GE ([4]; 4 μg/ml polymyxin B, vs non-antibiotic control): 4.54±0.83 fold | fold change in Ca. L. asiaticus GE ([4]; <1 μg/ml polymyxin B, vs untreated cultures): 0.03±0.13 fold | proportion of OTU 5 ([5]; Pmb 0.5 μg/ml): 0.194 | proportion of OTU 5 ([5]; Pmb 2 μg/ml): 0.001 | proportion of OTU 5 ([5]; Pmb 4 μg/ml): 0.011 | activity against / sensitivity of Ca. L. asiaticus [2]: not active | reads that were Bacillaceae members [16]: 70.7% | concentration sub-inhibitory to Bacillus cereus [15]: < 0.65 µg/mL | proportion of OTU 4 [11]: 0.000
